From PubChem BioAssay (NCI) come the findings set out here.

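How tested: cells in 96-well plates exposed to compound for 48 hours at five concentrations. GI50: concentration for 50% inhibition of growth. TGI denotes the concentration required for complete inhibition of growth.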

Some test systems named below: OVCAR-8 ovarian; SF-295 CNS; LOX IMVI melanoma; U251 CNS; IGROV1 ovarian; MALME-3M melanoma; SK-OV-3 ovarian; KM12 colon; COLO 205 colon; HT29 colon.
Holding throughout (experiment): NCI-60 cell line screen, 48 h

Turning to `O=C(O)C1C(C(=O)O)C23CC2(C(=O)O)C2(C(=O)O)CCC3=C3CCCC312` (stereo not given), the TGI came out at 64.4 µM with OVCAR-8 ovarian; 20.8 µM in the experiment with SF-295 CNS; 28.1 µM with LOX IMVI melanoma; 23.8 µM in the experiment with U251 CNS; 51.6 µM in the experiment with IGROV1 ovarian; 15.2 µM in the experiment on MALME-3M melanoma. Moreover, the TGI in the experiment with SK-OV-3 ovarian was 36.6 µM; in the experiment on KM12 colon it was 88.4 µM; in the experiment on COLO 205 colon it was 16.8 µM; with HT29 colon, 44.8 µM.
On to `COc1cc(NC(=O)CSc2nc3ccc(C)cc3c(=O)n2Cc2ccccc2)cc(OC)c1OC`, for which the GI50 in the experiment with OVCAR-8 ovarian is 4.42 µM; in the experiment with SF-295 CNS it was 7.01 µM; in the experiment with LOX IMVI melanoma, 55 µM; with U251 CNS, 3.93 µM; in the experiment with IGROV1 ovarian it was 32.5 µM; with MALME-3M melanoma, 4.07 µM. Besides, the GI50 in the experiment on SK-OV-3 ovarian is 3.06 µM; with KM12 colon, 29.9 µM; in the experiment on COLO 205 colon it was over 100 µM; with HT29 colon it was over 100 µM. For the same compound, the TGI in the experiment on OVCAR-8 ovarian was over 100 µM; in the experiment with SF-295 CNS, over 100 µM; in the experiment with LOX IMVI melanoma, over 100 µM; in the experiment with U251 CNS, 24 µM; with IGROV1 ovarian, over 100 µM; with MALME-3M melanoma, 31.3 µM. Moreover, the TGI in the experiment with SK-OV-3 ovarian was 8.58 µM; with KM12 colon, over 100 µM; in the experiment with COLO 205 colon it was over 100 µM; in the experiment on HT29 colon, over 100 µM.
Consider `CN(C)CCCN1c2ccccc2C(C)(C)c2ccccc21`, for which the TGI in the experiment with OVCAR-8 ovarian is 29.8 µM; in the experiment on SF-295 CNS, 32.9 µM; with LOX IMVI melanoma, 28.4 µM; in the experiment with U251 CNS, 24.9 µM; in the experiment on IGROV1 ovarian it was 31.7 µM; with MALME-3M melanoma it was 31 µM. For the same compound, the TGI in the experiment with SK-OV-3 ovarian was determined as 29.1 µM; in the experiment with KM12 colon it was 28.3 µM; in the experiment with COLO 205 colon, 27.8 µM; in the experiment on HT29 colon, 24 µM.
Take `COc1ccc(/C=C(\C#N)n2nnc3ccccc32)cc1`: the GI50 with OVCAR-8 ovarian was 0.416 µM; in the experiment on SF-295 CNS it was 0.205 µM; in the experiment with LOX IMVI melanoma, 0.548 µM; in the experiment with U251 CNS, 0.414 µM; in the experiment on IGROV1 ovarian, 0.158 µM; with MALME-3M melanoma it was 0.418 µM. Further, the GI50 with SK-OV-3 ovarian is 0.64 µM; in the experiment on KM12 colon it was 0.0948 µM; with COLO 205 colon, 0.0849 µM; in the experiment with HT29 colon, 0.0453 µM. Further, the TGI was over 100 µM with OVCAR-8 ovarian; 6.66 µM with SF-295 CNS; 6.72 µM with LOX IMVI melanoma; over 32.6 µM in the experiment with U251 CNS; 8.16 µM in the experiment on IGROV1 ovarian; over 71.2 µM in the experiment with MALME-3M melanoma. The TGI in the experiment on SK-OV-3 ovarian is over 40.1 µM; in the experiment on KM12 colon, over 21.7 µM; with COLO 205 colon it was 1.31 µM; in the experiment on HT29 colon it was over 100 µM.
Turning to `COc1ccc(-n2cc(-c3cc(OC)c(OC)c(OC)c3)nc2SCc2ccccc2)cc1OC`, the GI50 in the experiment with OVCAR-8 ovarian is over 83.6 µM; with SF-295 CNS it was over 100 µM; in the experiment on LOX IMVI melanoma, 59.3 µM; with U251 CNS it was 50 µM; in the experiment on IGROV1 ovarian it was 31.6 µM; with MALME-3M melanoma, over 100 µM. In addition, the GI50 was over 100 µM with SK-OV-3 ovarian, over 100 µM in the experiment on KM12 colon, 69.3 µM with COLO 205 colon and over 100 µM in the experiment on HT29 colon. Moreover, the TGI is over 100 µM in the experiment with OVCAR-8 ovarian; over 100 µM with SF-295 CNS; over 100 µM in the experiment on LOX IMVI melanoma; over 100 µM with U251 CNS; 88 µM with IGROV1 ovarian; over 100 µM in the experiment with MALME-3M melanoma. Besides, the TGI in the experiment on SK-OV-3 ovarian, in the experiment on KM12 colon, in the experiment with COLO 205 colon and with HT29 colon was over 100 µM each time.
For the compound `CCN(CC)CCn1c2ccccc2c(=O)c2c(O)ccc(O)c21`, the TGI in the experiment with OVCAR-8 ovarian was 48.2 µM; in the experiment with SF-295 CNS it was 56.1 µM; in the experiment on LOX IMVI melanoma, 36.3 µM; with U251 CNS, 74.1 µM; in the experiment on IGROV1 ovarian, 66.3 µM; with MALME-3M melanoma, 49.3 µM. The TGI in the experiment on SK-OV-3 ovarian was over 81 µM; in the experiment with KM12 colon, over 74.8 µM; in the experiment on COLO 205 colon, 45.1 µM; in the experiment on HT29 colon, 59.8 µM.
Turning to `OC(CNCC1CCCO1)Cn1c2ccc(Cl)cc2c2cc(Cl)ccc21` (stereo not given), the GI50 with OVCAR-8 ovarian was 2.02 µM; with SF-295 CNS, 1.78 µM; with LOX IMVI melanoma it was 1.65 µM; with U251 CNS, 1.65 µM; in the experiment with IGROV1 ovarian, 2.05 µM; in the experiment with MALME-3M melanoma, 1.93 µM. The GI50 with SK-OV-3 ovarian is 2.08 µM; in the experiment on KM12 colon it was 1.81 µM; in the experiment with COLO 205 colon, 1.92 µM; with HT29 colon, 1.94 µM. The TGI with OVCAR-8 ovarian was determined as 4.22 µM; with SF-295 CNS it was 3.57 µM; in the experiment with LOX IMVI melanoma, 3 µM; in the experiment on U251 CNS, 3.05 µM; with IGROV1 ovarian, 4.03 µM; in the experiment with MALME-3M melanoma it was 3.94 µM. Besides, the TGI in the experiment with SK-OV-3 ovarian was found to be 4.19 µM; in the experiment on KM12 colon, 3.27 µM; in the experiment on COLO 205 colon, 3.61 µM; with HT29 colon, 3.72 µM.
For the compound `Cc1ccc(NC(=O)C(=O)CC(=O)c2c(C)n([O-])c3ccccc3[n+]2=O)cc1`, the TGI in the experiment on OVCAR-8 ovarian is 55.8 µM; in the experiment with SF-295 CNS, over 100 µM; in the experiment with LOX IMVI melanoma, 45.4 µM; in the experiment with U251 CNS, 92.3 µM; with IGROV1 ovarian, 78.3 µM; with MALME-3M melanoma, 65.2 µM. Also, the TGI was over 100 µM in the experiment on SK-OV-3 ovarian, over 100 µM in the experiment with KM12 colon, 55.2 µM with COLO 205 colon and 86.4 µM in the experiment on HT29 colon.
On to `CCCCCCCCCCCCOC1C(C(COC2OC(C3COC(C)(C)O3)C3OC(C)(C)OC23)NC(=O)NS(=O)(=O)c2ccccc2)OC2OC(C)(C)OC21` (stereo not given), for which the GI50 was 3.35 µM in the experiment on OVCAR-8 ovarian; 3.52 µM in the experiment with SF-295 CNS; 5.22 µM with LOX IMVI melanoma; 3.14 µM in the experiment on U251 CNS; 2.53 µM in the experiment on IGROV1 ovarian; 13.7 µM in the experiment with MALME-3M melanoma. Besides, the GI50 with SK-OV-3 ovarian is 13.8 µM; in the experiment on KM12 colon it was 5.15 µM; in the experiment with COLO 205 colon it was 4.37 µM; with HT29 colon it was 4.32 µM. Moreover, the TGI turned out to be 23.9 µM in the experiment with OVCAR-8 ovarian; 16.6 µM in the experiment on SF-295 CNS; 19.7 µM in the experiment with LOX IMVI melanoma; 9.77 µM in the experiment with U251 CNS; 11.2 µM in the experiment with IGROV1 ovarian; 41.8 µM in the experiment with MALME-3M melanoma. The TGI in the experiment on SK-OV-3 ovarian stood at 28.1 µM; with KM12 colon it was 31.5 µM; in the experiment on COLO 205 colon it was 20.7 µM; in the experiment on HT29 colon, 16.4 µM.
